Reference: patent US20190365878A1, “PHARMACEUTICAL TREATMENTS FOR PREVENTING OR TREATING PANCREATIC CANCER” (THE JOHNS HOPKINS UNIVERSITY, priority 2016, published 2019)

Tested on: Panc02 murine pancreatic adenocarcinoma cells
Assay: hemi-splenectomy liver metastasis mouse model, 90 day survival
Format: in vivo, C57/B16 mice
Settings: 28-day dosing scheme, followed 90 days
From the text: Survival Proportions: 90 Day survival of all groups.
The inventors performed hemi-splenectomy with the injection of 2×10^6 Panc02 murine pancreatic adenocarcinoma cells on C57/B16 mice, aged 9-10 weeks to model metastasis of pancreatic tumor cells to the liver. Mice were divided into treatment groups and dosed with cyclophosphamide and GVAX vaccine as well as an oral IDO1 inhibitor PF-06840003, according to a 28-day dosing scheme.
An oral methocel vehicle was given as a placebo treatment. The IDO inhibitor PF-06840003 and oral methocel compounds were administered twice daily by oral gavage, starting on post-operative day 3 and extending through post-operative day 28. Cyclophosphamide was administered on post-operative day 3. GVAX vaccine was administered on post-operative days 4, 7, 14 and 21. Mice were followed for survival for 90 days.

For `O=C1CC(c2c[nH]c3ccc(F)cc23)C(=O)N1` (stereo not shown) [PF-06840003], the survival was “no significant effect on survival”.
